Measured values taken from patent US6693107B1, “Pharmaceutical composition useful for the treatment of tinnitus and hearing loss” (priority 1999, dated 2004).
Where a name gives a salt, the structure may show the parent alone.

How the values were obtained:
tinnitus = experiment: Case reports: tinnitus in patients treated with sildenafil citrate; type: in vivo, human
From the text: A person suffering for several years from severe tinnitus and hearing loss in their right ear had repeatedly sought medical advice and tried many alleged therapies for their tinnitus, none of which was effective. […] Other than that they are in good health and receives no medications. Recently they were prescribed sildenafil citrate for improving their sexual performance. […] A person known to have bilateral tinnitus and hearing loss for more than 20 years. Other than hypertension, for which they are treated, they are in good health. They were prescribed sildenafil citrate, 25 mg daily, for the tinnitus.

hearing loss = experiment: Case report: hearing loss / audiogram in patient treated with sildenafil citrate; type: in vivo, human
From the text: A person suffering for several years from severe tinnitus and hearing loss in their right ear had repeatedly sought medical advice and tried many alleged therapies for their tinnitus, none of which was effective. […] Other than that they are in good health and receives no medications. Recently they were prescribed sildenafil citrate for improving their sexual performance. […] For instance, at frequencies of 500-1000 Hz, hearing in their right ear improved from 50-55 dB to 30 dB.

[1] = patients suffering from tinnitus

How did the effect on tinnitus (tinnitus; Example 1: person, severe tinnitus in right ear, first course of sildenafil citrate) turn out when CCCc1nn(C)c2c(=O)[nH]c(-c3cc(S(=O)(=O)N4CCN(C)CC4)ccc3OCC)nc12 [sildenafil citrate, 1-[[3-(6,7-dihydro-1-methyl-7-oxo-3-propyl-1H-pyrazolo [4,3-d]pyrimidin-5-yl)-4-ethoxyphenyl]sulfonyl]4-methylpiperazine citrate] was run?
The effect on tinnitus was “amelioration of the tinnitus, which eventually nearly disappeared”.

And the “tinnitus status on continued treatment” value (tinnitus; Example 1: person, continues on sildenafil citrate)?
Its value is “practically tinnitus-free”.

And the “return of the tinnitus after cessation of the medication” value (tinnitus; Example 1: person, intentional stop of the medication)?
The value was 2-3 weeks.

And the “severity of tinnitus on rechallenge” value (tinnitus; Example 1: person, rechallenge 25 mg twice weekly)?
The value was “reduced the severity of tinnitus within a week and proceeded to almost complete disappearance of the symptom”.

What about the effect on tinnitus (tinnitus; Example 2: person, bilateral tinnitus, 25 mg daily, starting after the 5th daily dose, persisted as long as drug taken) of the same compound?
Its effect on tinnitus is “marked reduction in their tinnitus”.

What about the “audiogram (overall)” value (hearing loss; Example 1: after several months treatment) of the same compound?
The value was “marked improvement”.

What about the “hearing in right ear after treatment (audiogram)” value (hearing loss; Example 1: frequencies of 500-1000 Hz, after several months treatment, improved from 50-55 dB before treatment) of the same compound?
The value was 30 dB.

And the “hearing (patient report)” value (hearing loss; Example 1: person, hearing loss in right ear, on continued treatment)?
Its value is “significant improvement in their hearing”.

With CCCc1nn(C)c2c(=O)[nH]c(-c3cc(S(=O)(=O)N4CCN(C)CC4)ccc3OCC)nc12 [sildenafil] as the compound, how does the “effect on tinnitus (general statement)” value (tinnitus; [1]) read?
Its value is “effective in reducing tinnitus”.

And the “effect on hearing loss (general statement)” value (hearing loss; [1])?
The value was “ameliorating hearing loss”.
